Assays:
B6μ, Heμ and CXμ mice [1] = assay: hot-plate test; assay type: in vivo, mouse; conditions: CXμ mice vs B6μ and Heμ littermates; 10 mg/kg intraperitoneal; 20 minutes after injection; plate 52.0°C; p<0.05
B6μ, Heμ and CXμ mice [2] = conditions: mouse, in vivo, ip, 10 mg/kg

SMILES: CN1CC[C@]23c4c5ccc(O)c4O[C@H]2[C@@H](O)C=C[C@H]3[C@H]1C5.Cl [morphine, Morphine hydrochloride]
- latency of response to heat stimulus (first jumping; drug-induced analgesia), hot-plate test (B6μ, Heμ and CXμ mice [1]): significantly shorter latency than the littermates
- latency of response to heat stimulus (drug-induced analgesia), tail-flick test (B6μ, Heμ and CXμ mice [2]): significantly shorter latency than the littermates
